{
  "source": "patent US9834755B2",
  "about": "“Compositions and methods for enhanced generation of hematopoietic stem/progenitor cells” (FRED HUTCHINSON CANCER RESEARCH CENTER, priority 2011, dated 2017)",
  "key": {"CD34^+ CB HSPC [1]": {"system": "CD34^+ CB HSPC", "assay": "In vivo repopulation: cultured progeny of CD34+ CB HSPC transplanted into sublethally irradiated NSG mice", "parameters": "species or system human", "procedure": "Sublethally irradiated NOD-SCID IL-2Rγ-null mice (obtained from an established breeding colony at the Fred Hutchinson Cancer Research Center and approved for use by the Fred Hutchinson Cancer Research Center Institutional Animal Care and Use Committee) were infused with the progeny 10,000 starting CD34^+ cells per mouse via tail vein for cord blood experiments and the progeny of 20,000 for PBSC experiments. Repopulating ability of infused cells was assessed at 2-3 weeks post-transplant by bone marrow aspiration and at 13 weeks by bone marrow harvest.\nCells were cultured as described above and transplanted into sublethally irradiated immunodeficient NSG mice. Total human engraftment was defined as percent of human CD45^+ murine CD45.1^− cells based on bone marrow aspirate at 2 weeks post-transplant. Total myeloid engraftment was defined as percent human CD45^+CD33^+ murine CD45.1 cells on bone marrow aspirate at the same time point.\nThe progeny of 1×10^4 CD34^+ cells were then transplanted into 10 sublethally irradiated NSG mice per condition and engraftment was assessed by bone marrow aspirate at 2 weeks post-transplant. Total human engraftment was defined as percent of human CD45^+ murine CD45.1^− cells based on bone marrow aspirate at 2 weeks post-transplant. Total myeloid engraftment was defined as percent human CD45^+CD33^+ murine CD45.1^− cells on bone marrow aspirate at the same time point.\nTransplants into NSG mice were performed as described above, with the cultured progeny of 1×10^4 CD34^+ cells. Cells were cultured in the presence of SR1, Delta1^Ext-IgG 2.5 μg/ml, or SR1 and Delta1^Ext-IgG (2.5 or 5 μg/ml) for 16 days.\nCells were cultured and transplanted as described above with the progeny of 1×10^4 CD34^+ cells transplanted per mouse. Total human, progenitor cell, myeloid, and lymphoid assessments were performed on bone marrow samples. Bone marrow aspirates were performed in the mice at 2 and 8 weeks post-transplant, and mice were sacrificed for bone marrow harvest at 13 weeks."}, "CD34^+ CB HSPC [2]": {"system": "CD34^+ CB HSPC", "assay": "Ex vivo culture/expansion of CD34+ cord blood HSPC, cell counts and flow cytometric phenotype", "assay_type": "cell-based, human", "protocol": "(§1) Human cord blood samples for research were obtained from normal deliveries under Swedish Medical Center Institutional Review Board (Seattle) approval and after consent was obtained. The units were incubated in ammonium chloride red blood cell lysis buffer (consisting of 16.6 g NH4Cl, 2 g NaHCO3 and 74.4 mg EDTA per 2L of water) and resuspended in PBS with 2% human AB serum. Cells were incubated with CD34 Microbeads from Miltenyi Biotec and purified with an Automacs (Miltenyi Biotec). Cells were then frozen and thawed at time of use with PBS+1% FBS. Pools of 2 or more cord blood units were used for all experiments. Peripheral blood stem cells (PBSC) were obtained from a single donor and cryopreserved after CD34^+ cell selection.\nCells were cultured for 16 days in non-tissue-cultured-treated tissue culture flasks (25, 75, and 175-cm^2). Flasks were precoated with Delta1^ext-IgG (ligand preparation described in Delaney C. et al., 2005, Blood 106(8):2693-2699; and Varnum-Finney et al., 2000, J. Cell Science 113: 4313-4318), or human control IgG at 2.5 μg/ml and retronectin 5 μg/ml. Delta1^ext-IgG titrations were performed with concentrations of 0.5, 1.25 (for PBSC), 2.5, or 5 μg/ml. Flasks were incubated at 4° C. overnight or 37° C. for 2 hours and then washed with PBS and blocked with PBS 2% BSA for 30 minutes at 37° C. Cells were cultured in StemSpan serum-free expansion medium in the presence of 4 growth factors (IL6 (50 ng/ml), thrombopoietin (50 ng/ml), Flt-3 ligand (50 ng/ml), stem cell factor (50 ng/ml)) or 5 growth factors (4 growth factors plus IL3 (10 ng/ml)). SR-1 was made fresh and added to cells with all feedings at a concentration of 750 nM. Cultures in 25-cm^2 flasks were initiated with between 7×10^4 and 1.3×10^5 CD34^+ cells. Cultures in 75-cm^2 flasks were initiated with 3×10^5 CD34^+ cells. Cells were expanded to larger flasks when they exceeded cell density >1×10^6 cells/ml. Expansions typically occurred on day 7 and 10 of culture. Fresh media with cytokines was added very 3-4 days including the day prior to transplantation.\nImmunofluorescence analysis was performed as described (see Ohishi et al., 2002, J Clin Invest. 110(8): 1165-1174), with FITC-labeled antibodies against human CD3, CD14, CD15, CD33, CD34, CD90, phycoerythryin (PE)-labeled antibodies against human CD19, CD56, CD90, CD133, Glycophorin A, CXCR4, PERCP-labeled antibodies against human CD14, CD34, APC-labeled antibodies against human CD45, CD90 and PECy7 labeled antibody against mouse CD45.1.\nTo determine whether Delta1^Ext-IgG and SR1 in combination were successfully able to expand CD34^+ CB HSPC ex vivo, CD34^+ cell generation, an HSPC enriched population routinely used in clinical application, was assessed at multiple time points in culture as compared to IgG control. CD34^+ CB progenitors were isolated by bead selection and Automacs and then cultured for 21 days in StemSpan serum-free expansion media supplemented with cytokines (TPO, SCF, IL-6, and Flt3-ligand at 50 ng/ml). […] Cells were cultured in the presence of SR1 (750 nM) and Delta1^Ext-IgG (0.5 or 2.5 μg/ml) or an IgG control. The engineered Notch ligand, Delta1^ext-IgG, contains the extracellular domain of Delta1 fused to the Fc portion of human IgG1 and is immobilized on the plastic surface of tissue culture flasks at varying densities. Immobilization of the Fc portion of human IgG1 served as a control construct. […] CD34^+ selected cells were seeded per flask from a pool of 2 CB units. […]"}, "HSPC": {"system": "HSPC", "settings": "culturing HSPC with SR1; cited from earlier work"}, "CD34^+ cord blood HSPC": {"system": "CD34^+ cord blood HSPC", "settings": "culturing HSPC with SR1; cited from earlier work"}, "CD34^+ CB HSPC [3]": {"system": "CD34^+ CB HSPC", "assay": "SRC frequency by limiting dilution analysis in NSG mice", "assay_type": "in vivo, human", "settings": "Delta1^Ext-IgG 2.5 μg/ml alone, 5 μg/ml with SR1; for No. mice engrafted, Engraftment with ≧0.5% CD34^+ cells / No. mice engrafted, Engraftment with ≧1% CD33^+ cells / No. mice engrafted, Engraftment with ≧1% CD34^+ cells / No. mice engrafted, Engraftment with ≧5% CD33^+ cells: bone marrow aspirate at 2 weeks", "source_text": "Human cord blood (CB) samples for research were obtained from normal deliveries under Swedish Medical Center Institutional Review Board (Seattle) approval and after consent was obtained. CB samples were red blood cell depleted (Delaney et al., 2010, Nat Med 16(2):232-236), CD34 enriched using CD34^+ immunomagnetic particles (Miltenyi Biotec), purified with Automacs (Miltenyi Biotec), and cryopreserved. […] Cultures were initiated with 7×10^4 to 1.3×10^5 CD34^+ cells for 25-cm^2 flasks and with 3×10^5 CD34^+ cells for 75-cm^2 flasks. Immunofluorescence analysis was performed as described (Ohishi et al., 2002, J Clin Invest. 110(8):1165-1174) with labeled antibodies: FITC (human CD14, CD33, and Lineage); PE (human CD7, CD14, CD15, CD19, CD90, and CD123); PERCP (human CD34); APC (human CD10, CD45, IL3Ra); PECy7 (mouse CD45.1, human CD34); Alexa Fluor 700 (CD38); APC-eFluor 780 (CD45RA). Transplants were performed in sublethally irradiated (275 rad) NOD-SCID IL-2Rγ-null mice (NSG). In vivo engraftment was assessed by immunofluorescence analysis of human cell subsets (human CD45^+ murine CD45.1). On average, the total number of cells infused was 4.25×10^6/mouse for Delta1^ext-IgG alone, 1.88×10^7/mouse for SR1 alone, and 4.76×10^6/mouse for the combination. Statistical analyses were performed as indicated. For limiting dilution analysis, mice were injected with the cultured progeny of the number of CD34^+ cells indicated and bone marrow aspirates performed at 2 weeks. Two engraftment cut-offs were chosen based on percent engraftment observed in non-limiting transplantation studies. The frequency of SRCs was determined by the method of maximum likelihood with L-CALC software (StemCell Technologies) from the proportions of engrafted recipients (A, B)."}, "[4]": {"system": "mobilized peripheral blood stem cells (mPBSC)", "assay": "Ex vivo culture of mobilized peripheral blood stem cells", "assay_type": "cell-based, human", "settings": "mPBSC cultured 16 days", "protocol": "as §1\nCells were cultured for 16 days in non-tissue-cultured-treated tissue culture flasks (25, 75, and 175-cm^2). Flasks were precoated with Delta1^ext-IgG (ligand preparation described in Delaney C. et al., 2005, Blood 106(8):2693-2699; and Varnum-Finney et al., 2000, J. Cell Science 113: 4313-4318), or human control IgG at 2.5 μg/ml and retronectin 5 μg/ml. Delta1^ext-IgG titrations were performed with concentrations of 0.5, 1.25 (for PBSC), 2.5, or 5 μg/ml. Flasks were incubated at 4° C. overnight or 37° C. for 2 hours and then washed with PBS and blocked with PBS 2% BSA for 30 minutes at 37° C. […]"}, "CD34+ cells": {"system": "CD34+ cells", "settings": "cited from earlier work"}, "[5]": {"settings": "limiting dilution analysis, maximum likelihood"}},
  "note": "Marks after values point to notes of the source that are not given here.",
  "data": [
    {"smiles": "CC(C)n1cnc2c(NCCc3ccc(O)cc3)nc(-c3csc4ccccc34)nc21", "note": "[SR1, 4-(2-(2-(benzo[b]thiophen-3-yl)-9-isopropyl-9H-purin-6-ylamino)ethyl)phenol]", "values": [
      {"measurement": "rapid repopulation by B-lymphoid cells (percent CD45^+CD33^-CD19^+) in comparison with Delta1^Ext-IgG alone or the combination", "setting": "CD34^+ CB HSPC [1]; early time point (2 weeks)", "value": "significantly enhanced"},
      {"measurement": "human engraftment upon secondary transplantation, average CD45^+", "setting": "CD34^+ CB HSPC [1]; secondary transplantation, differences not statistically significant", "value": 0.11, "unit": "%"},
      {"measurement": "CD34 expansion compared to IgG control", "setting": "CD34^+ CB HSPC [2]; 7, 14, 18 and 21 days in culture, alone groups: data not shown", "value": "enhanced CD34 expansion"},
      {"measurement": "total nucleated cell (TNC) expansion over IgG control and all Delta1^Ext-IgG conditions", "setting": "CD34^+ CB HSPC [2]; 7-16 days in culture", "value": "enhanced"},
      {"measurement": "ex vivo generation of total nucleated cells (TNC) compared to Delta1^Ext-IgG (2.5 μg/ml) or SR1 and Delta1^Ext-IgG (5 μg/ml) combined", "setting": "CD34^+ CB HSPC [2]; SR1 750 nM, 14 days, p<0.001, p=0.04", "value": "significantly enhanced"},
      {"measurement": "increase in the number of cells with the ability to repopulate immunodeficient mice", "setting": "HSPC", "value": 17, "unit": "fold"},
      {"measurement": "increase in CD34^+ cells", "setting": "CD34^+ cord blood HSPC", "value": 50, "unit": "fold"},
      {"measurement": "No. mice engrafted, Engraftment with ≧0.5% CD34^+ cells", "setting": "CD34^+ CB HSPC [3]; 1000 CD34^+ cells/mouse", "value": "1/9"},
      {"measurement": "No. mice engrafted, Engraftment with ≧1% CD33^+ cells", "setting": "CD34^+ CB HSPC [3]; 1000 CD34^+ cells/mouse", "value": "3/9"},
      {"measurement": "No. mice engrafted, Engraftment with ≧1% CD34^+ cells", "setting": "CD34^+ CB HSPC [3]; 1000 CD34^+ cells/mouse", "value": "1/9"},
      {"measurement": "No. mice engrafted, Engraftment with ≧5% CD33^+ cells", "setting": "CD34^+ CB HSPC [3]; 1000 CD34^+ cells/mouse", "value": "1/9"},
      {"measurement": "No. mice engrafted, Engraftment with ≧0.5% CD34^+ cells", "setting": "CD34^+ CB HSPC [3]; 4000 CD34^+ cells/mouse", "value": "2/9"},
      {"measurement": "No. mice engrafted, Engraftment with ≧1% CD33^+ cells", "setting": "CD34^+ CB HSPC [3]; 4000 CD34^+ cells/mouse", "value": "5/9"},
      {"measurement": "No. mice engrafted, Engraftment with ≧1% CD34^+ cells", "setting": "CD34^+ CB HSPC [3]; 4000 CD34^+ cells/mouse", "value": "1/9"},
      {"measurement": "No. mice engrafted, Engraftment with ≧5% CD33^+ cells", "setting": "CD34^+ CB HSPC [3]; 4000 CD34^+ cells/mouse", "value": "1/9"},
      {"measurement": "No. mice engrafted, Engraftment with ≧0.5% CD34^+ cells", "setting": "CD34^+ CB HSPC [3]; 20000 CD34^+ cells/mouse", "value": "7/7"},
      {"measurement": "No. mice engrafted, Engraftment with ≧1% CD33^+ cells", "setting": "CD34^+ CB HSPC [3]; 20000 CD34^+ cells/mouse", "value": "7/7"},
      {"measurement": "No. mice engrafted, Engraftment with ≧1% CD34^+ cells", "setting": "CD34^+ CB HSPC [3]; 20000 CD34^+ cells/mouse", "value": "6/7"},
      {"measurement": "No. mice engrafted, Engraftment with ≧5% CD33^+ cells", "setting": "CD34^+ CB HSPC [3]; 20000 CD34^+ cells/mouse", "value": "7/7"},
      {"measurement": "CD33^+ SRC frequency per starting cell, Engraftment with ≧1% CD33^+ cells", "setting": "CD34^+ CB HSPC [3]; [5]", "value": "1/3868**"},
      {"measurement": "CD33^+ SRC frequency per starting cell, Engraftment with ≧5% CD33^+ cells", "setting": "CD34^+ CB HSPC [3]; [5]", "value": "1/10063^##"},
      {"measurement": "CD34^+ SRC frequency per starting cell, Engraftment with ≧0.5% CD34^+ cells", "setting": "CD34^+ CB HSPC [3]; [5]", "value": "1/8495**"},
      {"measurement": "CD34^+ SRC frequency per starting cell, Engraftment with ≧1% CD34^+ cells", "setting": "CD34^+ CB HSPC [3]; [5]", "value": "1/13514^##"},
      {"measurement": "TNC and CD34^+ cell expansion in vitro", "setting": "[4]", "value": "greatest TNC and CD34^+ cell expansion"}
    ]},
    {"smiles": "Fc1cncc(-c2nc(NCCc3c[nH]c4ccccc34)c3ncn(C4CCOC4)c3n2)c1", "note": "(centres unmarked) [Example 158]", "values": [
      {"measurement": "EC50", "setting": "CD34+ cells", "value": 0.012, "unit": "µM"}
    ]},
    {"smiles": "CC(C)n1cnc2c(NCCc3ccc(O)cc3)nc(-c3cncc(F)c3)nc21", "note": "[Example 134]", "values": [
      {"measurement": "EC50", "setting": "CD34+ cells", "value": 0.2, "unit": "µM"}
    ]}
  ]
}
